Laboratory results from patent publication US9492471B2, “Methods of treating a disease or disorder associated with Bruton'S Tyrosine Kinase” (Celgene Avilomics Research, Inc., priority 2013, dated 2016).
Where two headings read alike, the source gives them in different places.

Key:
Assay in all cases: HotSpot kinase profiling
Format in all cases: biochemical
[1] = biological target: T1, EPHB4 (Homo sapiens, UniProt P54760)
T1 construct: purchased Reaction Biology Corp
T1 sequence (P54760 16-987): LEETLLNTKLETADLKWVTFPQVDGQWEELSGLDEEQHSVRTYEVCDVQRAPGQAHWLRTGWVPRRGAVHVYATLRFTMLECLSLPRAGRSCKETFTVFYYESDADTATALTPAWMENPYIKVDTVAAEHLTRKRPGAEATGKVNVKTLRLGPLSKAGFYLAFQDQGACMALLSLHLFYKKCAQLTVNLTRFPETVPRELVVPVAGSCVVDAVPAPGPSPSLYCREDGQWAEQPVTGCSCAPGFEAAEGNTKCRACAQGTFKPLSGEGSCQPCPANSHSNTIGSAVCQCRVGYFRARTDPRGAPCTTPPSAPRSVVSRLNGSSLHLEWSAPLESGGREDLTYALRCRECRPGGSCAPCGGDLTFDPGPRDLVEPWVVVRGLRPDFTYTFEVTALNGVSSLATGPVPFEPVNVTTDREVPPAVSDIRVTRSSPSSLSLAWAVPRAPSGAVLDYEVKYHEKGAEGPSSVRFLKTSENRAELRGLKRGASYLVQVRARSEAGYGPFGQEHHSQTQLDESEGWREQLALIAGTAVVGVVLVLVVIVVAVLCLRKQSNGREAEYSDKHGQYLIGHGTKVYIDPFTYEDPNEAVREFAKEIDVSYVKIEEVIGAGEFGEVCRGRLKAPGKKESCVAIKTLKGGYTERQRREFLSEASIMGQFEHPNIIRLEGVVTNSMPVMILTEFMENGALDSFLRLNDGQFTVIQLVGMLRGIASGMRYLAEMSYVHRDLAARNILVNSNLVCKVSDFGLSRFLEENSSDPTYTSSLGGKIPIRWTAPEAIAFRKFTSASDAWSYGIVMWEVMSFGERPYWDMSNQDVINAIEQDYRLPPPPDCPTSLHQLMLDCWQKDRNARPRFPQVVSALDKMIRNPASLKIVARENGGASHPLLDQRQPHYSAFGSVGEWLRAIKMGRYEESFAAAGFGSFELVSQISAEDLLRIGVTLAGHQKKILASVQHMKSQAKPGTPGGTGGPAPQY
Procedure, shortened: (§1)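 Percent inhibition, averaged when run more than once and referenced to a DMSO negative control, came from a radioactive filter-binding readout on P81 paper. Reactions of kinase with freshly made substrate and cofactors ran for 2 h at room temperature.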

[2] = biological target: T2, MLCK/MYLK (Homo sapiens, UniProt Q15746)
T2 construct: purchased Reaction Biology Corp
Procedure, shortened: as §1

[3] = biological target: T3, MLK3/MAP3K11 (Homo sapiens, UniProt Q16584)
T3 construct: purchased Reaction Biology Corp
T3 sequence (Q16584 whole entry): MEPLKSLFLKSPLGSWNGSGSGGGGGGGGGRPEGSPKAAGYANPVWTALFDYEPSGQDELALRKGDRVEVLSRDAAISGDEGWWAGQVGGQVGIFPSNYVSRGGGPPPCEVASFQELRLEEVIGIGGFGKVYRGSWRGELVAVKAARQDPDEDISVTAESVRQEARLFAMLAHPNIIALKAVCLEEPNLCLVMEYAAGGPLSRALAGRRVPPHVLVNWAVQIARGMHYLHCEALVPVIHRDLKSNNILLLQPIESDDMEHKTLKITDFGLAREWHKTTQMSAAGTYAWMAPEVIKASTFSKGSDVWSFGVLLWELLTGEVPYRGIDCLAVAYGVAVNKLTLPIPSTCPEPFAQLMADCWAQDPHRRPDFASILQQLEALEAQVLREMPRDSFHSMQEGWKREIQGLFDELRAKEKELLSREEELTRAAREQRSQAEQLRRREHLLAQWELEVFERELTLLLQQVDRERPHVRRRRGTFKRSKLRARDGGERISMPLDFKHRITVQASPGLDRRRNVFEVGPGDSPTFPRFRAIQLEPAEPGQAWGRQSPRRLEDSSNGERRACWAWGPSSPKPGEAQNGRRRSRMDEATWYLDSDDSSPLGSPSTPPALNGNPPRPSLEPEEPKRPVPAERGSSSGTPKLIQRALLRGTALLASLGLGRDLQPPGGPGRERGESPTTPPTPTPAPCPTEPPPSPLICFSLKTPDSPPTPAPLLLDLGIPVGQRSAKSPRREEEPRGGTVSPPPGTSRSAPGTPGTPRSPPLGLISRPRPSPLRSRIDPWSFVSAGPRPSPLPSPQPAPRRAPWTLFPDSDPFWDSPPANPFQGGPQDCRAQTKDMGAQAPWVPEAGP
Procedure, shortened: as §1

[4] = biological target: T4, PKD2/PRKD2 (Homo sapiens, UniProt Q9BZL6)
T4 construct: purchased Reaction Biology Corp
T4 sequence (Q9BZL6 1-878): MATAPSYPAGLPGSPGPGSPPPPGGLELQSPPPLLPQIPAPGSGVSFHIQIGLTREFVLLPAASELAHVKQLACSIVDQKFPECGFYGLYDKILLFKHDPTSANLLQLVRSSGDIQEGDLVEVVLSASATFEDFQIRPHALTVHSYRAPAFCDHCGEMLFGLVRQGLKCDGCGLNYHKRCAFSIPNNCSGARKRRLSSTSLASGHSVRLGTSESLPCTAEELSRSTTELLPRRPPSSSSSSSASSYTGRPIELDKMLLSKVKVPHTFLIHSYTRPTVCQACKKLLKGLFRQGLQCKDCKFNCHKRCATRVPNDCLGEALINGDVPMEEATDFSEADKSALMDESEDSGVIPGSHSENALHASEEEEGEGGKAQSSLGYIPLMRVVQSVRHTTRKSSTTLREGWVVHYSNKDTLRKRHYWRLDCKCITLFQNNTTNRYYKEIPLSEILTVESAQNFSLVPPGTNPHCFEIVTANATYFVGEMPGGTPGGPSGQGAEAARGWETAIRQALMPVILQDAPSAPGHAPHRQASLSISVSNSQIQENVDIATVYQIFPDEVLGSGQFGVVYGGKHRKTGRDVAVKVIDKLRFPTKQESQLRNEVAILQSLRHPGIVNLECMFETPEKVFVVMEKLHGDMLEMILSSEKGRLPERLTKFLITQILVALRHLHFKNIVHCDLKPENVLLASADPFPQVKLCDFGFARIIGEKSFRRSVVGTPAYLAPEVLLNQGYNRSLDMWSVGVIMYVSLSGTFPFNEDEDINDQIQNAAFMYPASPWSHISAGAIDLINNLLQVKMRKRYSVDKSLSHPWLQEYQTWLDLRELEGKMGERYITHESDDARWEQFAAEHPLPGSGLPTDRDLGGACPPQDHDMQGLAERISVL
Procedure, shortened: as §1

[5] = read-out: % Enzyme Activity (relative to DMSO controls) Run 1
[6] = read-out: % Enzyme Activity (relative to DMSO controls) Run 2

C=CC(=O)Nc1cccc(Nc2nc(Nc3ccc(OCCOC)c(F)c3)ncc2F)c1 [Compound 2] gave an inhibition at 3 µM [1] of 18.6%, a remaining activity at 3 µM [1, 5] of 81.2% and a remaining activity at 3 µM [1, 6] of 81.5%. For the same compound, the inhibition at 3 µM [2] was 4.59%, the remaining activity at 3 µM [2, 5] was 95.6% and the remaining activity at 3 µM [2, 6] was 95.2%. It also gave an inhibition at 3 µM [3] of 73.4%, a remaining activity at 3 µM [3, 5] of 27.9% and a remaining activity at 3 µM [3, 6] of 25.2%. For the same compound, the inhibition at 3 µM [4] was 13.7%, the remaining activity at 3 µM [4, 5] was 86.4% and the remaining activity at 3 µM [4, 6] was 86.2%.
